CC50, IC50 and selectivity ratio data for 19 molecules are collected here from ChEMBL document CHEMBL3997818, “Structure-activity relationship studies of 1-(1'-hydroxyalkyl)rupestonic acid methyl esters against influenza viruses” (Bioorg Med Chem Lett, 2017).

Molecules are shown by their SMILES. ≈ marks a conversion by molar mass, not a printed value.

By IC50 is commonly meant the point on the concentration scale where inhibition reaches its midpoint.

Data set [1] can be described thus: Cytotoxicity against MDCK cells after 48 hrs by Reed and Muench analysis. It is filed as cell-based, Canis lupus familiaris. As to conditions: dog, read-out: TC50.
Another data set deals with Influenza A virus H3N2. The experiment in a line: Antiviral activity against Influenza A virus H3N2 infected in MDCK cells assessed as inhibition of virus-induced cytopathic effect after 40 hrs. It is filed as functional, cell-based. (In general: Damage to the host cells serves as the signal in cytopathic effect assays.)
For another data set, the system named is Influenza A virus. The data set can be described thus: Antiviral activity against Influenza A virus H1N1 infected in MDCK cells assessed as inhibition of virus-induced cytopathic effect after 40 hrs. It is filed as functional, cell-based.
Data set [2] can be described thus: Selectivity index, ratio of TC50 for MDCK cells to IC50 for Influenza B virus infected in MDCK cells. It counts as toxicity, cell-based. As to conditions: dog, read-out: Selectivity Index.
Data set [3] is described as follows: Selectivity index, ratio of TC50 for MDCK cells to IC50 for Influenza A virus H3N2 infected in MDCK cells. It is filed as toxicity, cell-based. Conditions: dog, read-out: Selectivity Index.
A short description of data set [4]: Selectivity index, ratio of TC50 for MDCK cells to IC50 for Influenza A virus H1N1 infected in MDCK cells. Conditions: dog, read-out: Selectivity Index. It counts as toxicity, cell-based.
In the next data set the test system is Influenza B virus. The data set can be described thus: Antiviral activity against Influenza B virus infected in MDCK cells assessed as inhibition of virus-induced cytopathic effect after 40 hrs. It is filed as functional, cell-based.

For `C=C(C(=O)OC)[C@@H]1CC[C@H](C)[C@H]2C(=C(C)C(=O)[C@@H]2[C@H](O)/C=C(\C)CCC=C(C)C)C1`, the CC50 at 48 h in data set [1] was 3.56 µg/mL (≈ 8.59 µM). In addition, the IC50 in the data set on Influenza A virus H3N2 came out at 1.6 µg/mL (≈ 3.86 µM); with Influenza A virus it was 2.06 µg/mL (≈ 4.97 µM); in the data set on Influenza B virus it was 1.2 µg/mL (≈ 2.89 µM). For the same molecule, the selectivity ratio stood at 3 in data set [2], 2.2 in data set [3] and 1.7 in data set [4].
`C=C(C(=O)OC)[C@@H]1CC[C@H](C)[C@@H]2CC(=O)C(C)=C2C1`: in data set [1], the CC50 at 48 h was determined as 55.6 µg/mL (≈ 212 µM). Besides, the IC50 in the data set on Influenza A virus H3N2 was 19 µg/mL (≈ 72.4 µM); with Influenza A virus, greater than 18.5 µg/mL; with Influenza B virus, greater than 18.5 µg/mL. Besides, the selectivity ratio in data set [3] is 3.
Consider `C=C(C(=O)OC)[C@@H]1CC[C@H](C)[C@H]2C(=C(C)C(=O)[C@@H]2[C@@H](C)O)C1`, for which the CC50 at 48 h in data set [1] was 500 µg/mL (≈ 1630 µM). Also, the values for the IC50 in the data set on Influenza A virus H3N2, with Influenza A virus and in the data set on Influenza B virus were greater than 167 µg/mL, 90 µg/mL (≈ 294 µM) and 72 µg/mL (≈ 235 µM), respectively. The selectivity ratio in data set [2] came to 7; in data set [4], 5.
As to `C=C(C(=O)OC)[C@@H]1CC[C@H](C)[C@H]2C(=C(C)C(=O)[C@@H]2[C@H](O)CC)C1`, in data set [1], the CC50 at 48 h is 167 µg/mL (≈ 520 µM). The IC50 is greater than 55.6 µg/mL in the data set with Influenza A virus H3N2, 14.4 µg/mL (≈ 44.8 µM) in the data set on Influenza A virus and 18.5 µg/mL (≈ 57.8 µM) with Influenza B virus. The selectivity ratio was 7 in data set [2] and 9 in data set [4].
Consider `C=C(C(=O)OC)[C@@H]1CC[C@H](C)[C@H]2C(=C(C)C(=O)[C@@H]2C(O)c2cc(F)cc(F)c2)C1` (single isomer, unassigned), for which, in data set [1], the CC50 at 48 h is 32.1 µg/mL (≈ 79.3 µM). Further, the figures for the IC50 with Influenza A virus H3N2, in the data set with Influenza A virus and with Influenza B virus were 14 µg/mL (≈ 34.6 µM), 2.63 µg/mL (≈ 6.5 µM) and 18.5 µg/mL (≈ 45.8 µM), respectively. Also, the values for the selectivity ratio in data set [2], in data set [3] and in data set [4] were 1.7, 2.2 and 12.2, respectively.
For `C=C(C(=O)OC)[C@@H]1CC[C@H](C)[C@H]2C(=C(C)C(=O)[C@@H]2C(O)c2cc(OC)c(OC)c(OC)c2)C1` (single isomer, unassigned), the CC50 at 48 h in data set [1] amounted to 167 µg/mL (≈ 363 µM). Moreover, the IC50 in the data set with Influenza A virus H3N2 is 56 µg/mL (≈ 122 µM); in the data set with Influenza A virus, 13 µg/mL (≈ 28.4 µM); with Influenza B virus it was greater than 55.6 µg/mL. In addition, the selectivity ratio in data set [3] came to 3; in data set [4] it was 13.
For the molecule `C=C(C(=O)OC)[C@@H]1CC[C@H](C)[C@H]2C(=C(C)C(=O)[C@@H]2C(O)c2ccc(OC)cc2)C1` (single isomer, unassigned), the CC50 at 48 h in data set [1] stood at 80.1 µg/mL (≈ 201 µM). For the same molecule, the IC50 was greater than 18.5 µg/mL in the data set with Influenza A virus H3N2, greater than 18.5 µg/mL in the data set with Influenza A virus and 18.5 µg/mL (≈ 46.5 µM) in the data set with Influenza B virus. Besides, the selectivity ratio in data set [2] worked out at 4.3.
For `C=C(C(=O)OC)[C@@H]1CC[C@H](C)[C@H]2C(=C(C)C(=O)[C@@H]2C(O)c2cccs2)C1` (single isomer, unassigned), the CC50 at 48 h in data set [1] came out at 8.9 µg/mL (≈ 23.8 µM). For the same molecule, the IC50 with Influenza A virus H3N2 was 1.19 µg/mL (≈ 3.18 µM); with Influenza A virus it was greater than 2.06 µg/mL; in the data set with Influenza B virus, greater than 2.06 µg/mL. In addition, the selectivity ratio in data set [3] was 7.5.
Take `C=C(C(=O)OC)[C@@H]1CC[C@H](C)[C@H]2C(=C(C)C(=O)[C@@H]2C(O)c2ccc(F)cc2)C1` (single isomer, unassigned): the CC50 at 48 h in data set [1] was found to be 80.1 µg/mL (≈ 207 µM). Also, the IC50 is greater than 18.5 µg/mL in the data set with Influenza A virus H3N2, 19 µg/mL (≈ 49.2 µM) in the data set with Influenza A virus and 11 µg/mL (≈ 28.5 µM) in the data set with Influenza B virus. Further, the selectivity ratio in data set [2] turned out to be 7.5; in data set [4], 4.3.
As for `C=C(C(=O)OC)[C@@H]1CC[C@H](C)[C@H]2C(=C(C)C(=O)[C@@H]2C(O)c2cc(Cl)cc(Cl)c2)C1` (single isomer, unassigned), the CC50 at 48 h in data set [1] is 10.7 µg/mL (≈ 24.4 µM). Also, the results for the half-inhibitory concentration (IC50) in the data set on Influenza A virus H3N2, in the data set with Influenza A virus and in the data set on Influenza B virus were 6 µg/mL (≈ 13.7 µM), greater than 6.17 µg/mL and greater than 6.17 µg/mL, respectively. For the same molecule, in data set [3], the selectivity ratio is 1.7.
`C=C(C(=O)OC)[C@@H]1CC[C@H](C)[C@H]2C(=C(C)C(=O)[C@@H]2C(O)c2ccccc2)C1` (single isomer, unassigned): in data set [1], the CC50 at 48 h amounted to 12.8 µg/mL (≈ 34.8 µM). Moreover, the IC50 with Influenza A virus H3N2 was 6 µg/mL (≈ 16.3 µM); with Influenza A virus, 6.17 µg/mL (≈ 16.7 µM); in the data set with Influenza B virus, greater than 6.17 µg/mL. Also, the selectivity ratio in data set [3] and in data set [4] was 2.1 each time.
`C=C(C(=O)OC)[C@@H]1CC[C@H](C)[C@H]2C(=C(C)C(=O)[C@@H]2C(O)c2ccc([N+](=O)[O-])s2)C1` (single isomer, unassigned): the CC50 at 48 h in data set [1] is 4.28 µg/mL (≈ 10.2 µM). Besides, the IC50 in the data set with Influenza A virus H3N2 is greater than 2.06 µg/mL; in the data set on Influenza A virus, 1.6 µg/mL (≈ 3.81 µM); in the data set with Influenza B virus, 2.06 µg/mL (≈ 4.91 µM). For the same molecule, the selectivity ratio in data set [2] was determined as 2.1; in data set [4], 2.7.
With `C=C(C(=O)OC)[C@@H]1CC[C@H](C)[C@H]2C(=C(C)C(=O)[C@@H]2C(O)c2cc(C(F)(F)F)cc(C(F)(F)F)c2)C1` (single isomer, unassigned), in data set [1], the CC50 at 48 h came out at 32.1 µg/mL (≈ 63.6 µM). Also, the IC50 is 18.5 µg/mL (≈ 36.7 µM) in the data set with Influenza A virus H3N2, 11 µg/mL (≈ 21.8 µM) in the data set with Influenza A virus and greater than 18.5 µg/mL in the data set with Influenza B virus. For the same molecule, the selectivity ratio came to 1.7 in data set [3] and 3 in data set [4].
For the molecule `C=C(C(=O)OC)[C@@H]1CC[C@H](C)[C@H]2C(=C(C)C(=O)[C@@H]2C(O)c2ccncc2)C1` (single isomer, unassigned), the CC50 at 48 h in data set [1] was 80.1 µg/mL (≈ 217 µM). Moreover, the values for the half-inhibitory concentration (IC50) in the data set on Influenza A virus H3N2, in the data set with Influenza A virus and with Influenza B virus were greater than 18.5 µg/mL, 10.7 µg/mL (≈ 28.9 µM) and 18.5 µg/mL (≈ 50.1 µM), respectively. In addition, the selectivity ratio turned out to be 4.3 in data set [2] and 7.5 in data set [4].
On to `C=C(C(=O)OC)[C@@H]1CC[C@H](C)[C@H]2C(=C(C)C(=O)[C@@H]2C(O)c2ccc(N(C)C)cc2)C1` (single isomer, unassigned), for which the CC50 at 48 h in data set [1] was 32.1 µg/mL (≈ 78 µM). Further, the IC50 was 18.5 µg/mL (≈ 45 µM) in the data set with Influenza A virus H3N2, 10.7 µg/mL (≈ 26 µM) with Influenza A virus and greater than 18.5 µg/mL in the data set with Influenza B virus. Besides, the selectivity ratio amounted to 1.7 in data set [3] and 3 in data set [4].
Regarding `C=C(C(=O)OC)[C@@H]1CC[C@H](C)[C@H]2C(=C(C)C(=O)[C@@H]2C(O)c2ccc(OC(F)(F)F)cc2)C1` (single isomer, unassigned), the CC50 at 48 h in data set [1] came out at 32.1 µg/mL (≈ 70.9 µM). In addition, the IC50 was 18 µg/mL (≈ 39.8 µM) with Influenza A virus H3N2, greater than 18.5 µg/mL with Influenza A virus and greater than 18.5 µg/mL in the data set with Influenza B virus. The selectivity ratio in data set [3] worked out at 1.7.
On to `CCOC(=O)C1=C[C@@H](OC(CC)CC)[C@H](NC(C)=O)[C@@H](N)C1` [OSELTAMIVIR], for which the IC50 in the data set on Influenza A virus H3N2 was 1.7 µg/mL (≈ 5.44 µM); in the data set on Influenza A virus, 3.9 µg/mL (≈ 12.5 µM).
With `C=C(C(=O)O)[C@@H]1CC[C@H](C)[C@@H]2CC(=O)C(C)=C2C1` [PECHUELOIC ACID], the CC50 at 48 h in data set [1] is 240 µg/mL (≈ 968 µM). The IC50 in the data set on Influenza A virus H3N2 came to 55.6 µg/mL (≈ 224 µM); in the data set on Influenza A virus it was 55.6 µg/mL (≈ 224 µM); in the data set on Influenza B virus it was 24 µg/mL (≈ 96.6 µM). Besides, the selectivity ratio in data set [2] amounted to 10; in data set [3], 4.3; in data set [4] it was 4.3.
For the molecule `NC(=O)c1ncn([C@@H]2O[C@H](CO)[C@@H](O)[C@H]2O)n1` [RIBAVIRIN], the values for the IC50 in the data set with Influenza A virus H3N2, in the data set with Influenza A virus and in the data set on Influenza B virus were 1.1 µg/mL (≈ 4.5 µM), 2.1 µg/mL (≈ 8.6 µM) and 0.8 µg/mL (≈ 3.28 µM), respectively. Moreover, the selectivity ratio in data set [2] came to 1400; in data set [3], 1100; in data set [4] it was 560.
